Data set [1] has as its system LNCaP cells. The data set can be described thus: [3H]2-DG glucose uptake assay in LNCaP cells. It counts as cell-based, human. The method, then: Screening of the focused compound library to identify lead glucose uptake inhibitors.
Glucose Uptake Assay. LNCaP cells were seeded in six-well plates (3×10^5 cells/well) for 24 h. […] The cells were lysed in […] lysis buffer (10 mM Tris-HCl pH 8.0, 0.1% SDS) and aliquots were taken for measurement of radioactivity using a scintillation counter (Beckman LS6500).

Data set [2] concerns normal human prostate epithelial cells (PrECs). The data set can be described thus: MTT cell viability assay, normal prostate epithelial cells. It counts as cell-based. The conditions noted are these: 72 h, up to 10 μM. From the text: (§1) Cells and Cell Culture. LNCaP prostate cancer cells were obtained from the American Type Culture Collection (Manassas, Va.). Cells were maintained in 10% fetal bovine serum (FBS)-supplemented RPMI 1640 medium (Invitrogen, Carlsbad, Calif.). Normal human mammary epithelial cells (HMEC) and normal human prostate epithelial cells (PrEC) were obtained from Lonza (Walkersville, Md.) and were maintained in Mammary Epithelial Cell Growth Medium (MEGM) and Prostate Epithelial Cell Growth Medium (PrEGM) (Lonza, Walkersville, Md.), respectively.
(§2) Cell Viability Assay. Cell viability was determined using the 3-(4,5-dimethylthiazol-2-yl)-2,5-diphenyltetrazolium bromide (MTT) assay. Cancer cells were seeded at 5000 cells/well and normal cells were seeded at 8000 cells/well in 96-well plates and incubated in 10% FBS-supplemented medium for 24 h. Cells were then treated with individual agents for 72 h. Drug-containing medium was replaced with medium containing MTT (0.5 mg/mL), followed by incubation at 37° C. for 1 h. After removal of medium, the reduced MTT dye in each well was solubilized in 100 μL of DMSO and absorbance at 570 nm was measured.
(Tetrazolium assays rely on reduction of a dye to a coloured formazan, in cell work by metabolically active cells.)

Data set [3] deals with human mammary epithelial cells (HMECs). The data set can be described thus: MTT cell viability assay, normal mammary epithelial cells. The data set is classed as cell-based. Particulars: 72 h, up to 10 μM.
Source text: as §1, §2

A further data set deals with PC-3 cells. The data set can be described thus: MTT cell viability assay, PC-3. The conditions noted are these: Homo sapiens, 72 h, 10% FBS. The data set is classed as cell-based. How it is done: as §2
(§3) Compound 30 was evaluated for antiproliferative activity in panels of different human cancer cells lines, including those of prostate, breast and pancreatic cancers. In all experiments, cells were treated with a range of concentrations of Compound 30 in the presence of 10% fetal bovine serum (FBS). Cell viability was then determined after 72 h of treatment using the 3-(4,5-dimethylthiazol-2-yl)-2,5-diphenyltetrazolium bromide (MTT) assay. […] It is noteworthy that despite this high antiproliferative potency, normal human prostate epithelial cells (PrECs) were resistant to the cytotoxic effect of Compound 30 even at 10 μM.

A further data set relates to DU-145 cells. The data set can be described thus: MTT cell viability assay, DU-145. It counts as cell-based. Particulars: Homo sapiens, 72 h, 10% FBS. The method, then: as §2, §3
The test system of a further data set is MCF-7 cells. The data set can be described thus: MTT cell viability assay, MCF-7. Particulars: Homo sapiens, MCF7, 72 h, 10% FBS. The data set is classed as cell-based. The method, then:
as §2, §3

The test system of a further data set is SKBR3 cells. The data set can be described thus: MTT cell viability assay, SKBR3. The data set is classed as cell-based. Particulars: Homo sapiens, SK-BR-3, 72 h, 10% FBS. The method, then: as §2, §3
Another data set deals with Cal-51 cells. The data set can be described thus: MTT cell viability assay, Cal-51. Particulars: Homo sapiens, 72 h, 10% FBS. It counts as cell-based. How it is done: as §2, §3
The next data set deals with MDA-MB-231 cells. The data set can be described thus: MTT cell viability assay, MDA-MB-231. The data set is classed as cell-based. The conditions noted are these: Homo sapiens, 72 h, 10% FBS. The method, then:
as §2, §3

The next data set has as its system AsPC1 cells. The data set can be described thus: MTT cell viability assay, AsPC1. It counts as cell-based. Particulars: Homo sapiens, 72 h, 10% FBS. The method, then:
as §2, §3

The next data set concerns BxPC3 cells. The data set can be described thus: MTT cell viability assay, BxPC3. The data set is classed as cell-based. The conditions noted are these: Homo sapiens, BXPC-3, 72 h, 10% FBS. The method, then: as §2, §3
The next data set deals with PANC1 cell line. The data set can be described thus: MTT cell viability assay, PANC1. It counts as cell-based. The conditions noted are these: Homo sapiens, PANC-1, 72 h, 10% FBS, read-out: IC50, viability of PANC1 cells. The method, then:
as §2, §3

Data set [4] deals with PANC1-GemR (gemcitabine-resistant subline). The data set can be described thus: MTT cell viability assay, PANC1-GemR. The data set is classed as cell-based. The conditions noted are these: Homo sapiens, 72 h, 10% FBS, read-out: IC50, viability of PANC1-GemR cells. The method, then: as §2, §3
Data set [5] concerns LNCaP cells. The data set can be described thus: Western blot analysis of energy restriction-associated markers in LNCaP cells. The data set is classed as cell-based, human. How it is done:
FIG. 4. (A) Dose-dependent suppressive effects of compounds 1, 2, 4, 5, 28, and 30 on the viability of LNCaP cells by MTT assays in 10% FBS-containing RPMI 1640 medium after 72 h of drug treatment. Column, mean; bars, SD (N=6). (B) Dose-dependent effect of compound 30 on the viability of normal prostate epithelial cells (PrECs) and human mammary epithelial cells (HMECs) after 72 h of treatment. Column, mean; bars, SD (N=6). (C) Western blot analysis of the dose-dependent effects of compound 30 on markers associated with apoptosis (PARP cleavage), β-TrCP-mediated protein degradation (β-TrCP, cyclin D1, Sp1, and AR), AMPK activation (p-AMPK, p-mTOR, and pp706SK), ER stress (GRP78 and GADD153), and epigenetic activation of KLF6.
Plasmid Construction, Transient Transfection and Immunoblotting. The full length GLUT1, GLUT4, and GLUT9 ORF cDNA clones were purchased from Addgene (Cambridge, Mass.) and GLUT3 ORF cDNA was purchased from Origene Technologies (Rockville, Md.). GLUT1, GLUT3, and GLUT9 were subcloned into the HindIII/SalI sites and GLUT4 was subcloned into the EcoRI/SalI sites of pEGFP-N2 expression vector (Clontech, Palo Alto, Calif.). Transfections were performed by electroporation using Nucleofector kit R of the Amaxa Nucleofector system (Lonza, Walkersville, Md.) according to the manufacturer's protocol. Immunoblotting was performed using cells lysates harvested with SDS lysis buffer (1% SDS, 50 mM Tris-HCl pH 8.0, 10 mM EDTA) containing 1× protease inhibitor cocktail (Sigma) and phosphatase inhibitor and were electrophoresed in 8˜12% SDS polyacrylamide gels and then transferred onto nitrocellulose membranes. After blotting in 5% nonfat dry milk, the membranes were incubated with primary antibodies at 1:1,000 dilution in TBS-Tween 20 overnight at 4° C., and then secondary antibodies conjugated with horseradish peroxidase at 1:5,000 dilution in TBS-Tween 20 for 1 hour at room temperature. Protein bands were visualized on X-ray film using an enhanced chemiluminescence system.
In general terms: A western blot detects proteins with antibodies after separation by electrophoresis.

Entries after “also recorded” stand apart in the source; their conditions may differ.

Usually IC50 stands for the concentration that gives 50% inhibition. As for `CC(CN1C(=O)S/C(=C\c2ccc(O)c(C(F)(F)F)c2)C1=O)(CC(F)(F)F)CC(F)(F)F` [Compound 30, 5-(4-Hydroxy-3-trifluoromethyl-benzylidene)-3-[4,4,4-trifluoro-2-methyl-2-(2,2,2-trifluoro-ethyl)-butyl]-thiazolidine-2,4-dione], the IC50 in the data set on LNCaP cells [1] (Homo sapiens, LNCaP, Krebs-Ringer phosphate buffer, 37° C., 30 min of drug treatment, read-out: IC50 in blocking [3H]2-DG uptake into LNCaP cells) is 2500 nM; in the data set with PC-3 cells it was 1500 to 1700 nM; in the data set with DU-145 cells, 1500 to 1700 nM; in the data set with MCF-7 cells it was around 700 nM; with SKBR3 cells it was 1600 nM; in the data set on Cal-51 cells, 1700 nM. The IC50 with MDA-MB-231 cells was 1900 nM; in the data set with AsPC1 cells, around 5000 nM; in the data set on BxPC3 cells it was around 7500 nM; in the data set with PANC1 cell line, around 2500 nM; in data set [4], around 2500 nM. Moreover, the “inhibition of [3H]2-DG uptake into LNCaP cells (screening, in words)” value in the data set on LNCaP cells [1] (each at 5 μM, 30 min of exposure) is recorded as “substantially improved potency relative to compound 5”. The “cytotoxic effect in PrECs” value in [2] is “resistant; also recorded: no appreciable cytoxicity; also recorded: no appreciable cytotoxicity”. The “cytotoxic effect in HMECs” value in data set [3] is listed as “resistant; also recorded: no appreciable cytoxicity; also recorded: no appreciable cytotoxicity”. Further, the AMPK phosphorylation entry in the data set with LNCaP cells [5] is reported as “increases”. In the data set with LNCaP cells [5], the “PARP cleavage (apoptosis)” value is listed as “dose-dependent increase”. Moreover, the “expression of ER stress markers GRP78 and GADD153” value in the data set with LNCaP cells [5] is “increased expression”. Moreover, the “expression of KLF6” value in the data set with LNCaP cells [5] was “increased the expression”. Further, the “expression of cyclin D1, Sp1 and AR” value in the data set with LNCaP cells [5] is listed as “downregulation”. The “levels of p-mTOR and p-p70S6K” value with LNCaP cells [5] was “concomitant decreases”. Besides, the β-TrCP expression result in the data set on LNCaP cells [5] is listed as “dose dependently increased”.

The record behind these values is patent publication US9174951B2, “Glucose transporter inhibitors” (The Ohio State University Research Foundation, priority 2012, dated 2015).
